Read-outs that look alike come from different tables or passages of the source.
Assays:
human Tie2 = molecular target: T1, human Tie2 (Homo sapiens, UniProt Q02763); test: Tie2 kinase inhibition: phosphorylation of GST-PLC (SH2-SH3 fragments) by GST-Tie2, 33P-ATP flashplate; assay type: biochemical
T1 construct: human Tie2 corresponding to amino acids 776-1124 of the intracellular domain was generated by PCR; made in house; host or cells: baculovirus expression system (vector pFastBacGT)
Experimental: The coding sequence of human Tie2 corresponding to amino acids 776-1124 of the intracellular domain was generated by PCR using the cDNA isolated from human placenta as model. This sequence was introduced into a baculovirus expression vector pFastBacGT in the form of a GST fusion protein.
The inhibitory effect of the molecules is determined in an assay for phosphorylation of PLC by Tie2 in the presence of GST-Tie2 purified to approximately 80% homogeneity. The substrate is made up of the SH2-SH3 fragments of PLC, the latter being expressed in the form of a GST fusion protein.
The kinase activity of Tie2 is measured in a 20 mM MOPS buffer, pH 7.2, containing 10 mM MgCl2, 10 mM MnCl2, 1 mM DTT and 10 mM of glycerophosphate. A reaction mixture made up of 70 μl of kinase buffer containing 100 ng of GST-Tie2 enzyme per well is placed in a flashplate 96-well plate kept on ice. 10 μl of the molecule to be tested, diluted in DMSO, at a concentration of at most 10% are then added. For a given concentration, each measurement is carried out in quadruplicate. The reaction is initiated by adding 20 μl of solution containing 2 μg of GST-PLC, 2 μM of cold ATP and 1 μCi of ^33P[ATP]. After incubation for 1 hour at 37° C., the reaction is stopped by adding 1 volume (100 μl) of 200 mM EDTA. After removal of the incubation buffer, the wells are washed three times with 300 μl of PBS. The radioactivity is measured on a Wallac MicroBeta 1450.
The inhibition of the Tie2 activity is calculated and expressed as percentage inhibition with respect to the control activity determined in the absence of compound.

human KDR enzyme = molecular target: T2, human KDR enzyme (Homo sapiens, UniProt P35968); test: KDR kinase inhibition: phosphorylation of PLCγ SH2-SH3 substrate by KDR enzyme, 33P-ATP scintillation plate; assay type: biochemical
T2 construct: The cytoplasmic domain of the human KDR enzyme was cloned in GST fusion form; GST; made in house; host or cells: SF21 insect cells (baculovirus, pFastBac)
T2 sequence (P35968 786-1356 limits assumed): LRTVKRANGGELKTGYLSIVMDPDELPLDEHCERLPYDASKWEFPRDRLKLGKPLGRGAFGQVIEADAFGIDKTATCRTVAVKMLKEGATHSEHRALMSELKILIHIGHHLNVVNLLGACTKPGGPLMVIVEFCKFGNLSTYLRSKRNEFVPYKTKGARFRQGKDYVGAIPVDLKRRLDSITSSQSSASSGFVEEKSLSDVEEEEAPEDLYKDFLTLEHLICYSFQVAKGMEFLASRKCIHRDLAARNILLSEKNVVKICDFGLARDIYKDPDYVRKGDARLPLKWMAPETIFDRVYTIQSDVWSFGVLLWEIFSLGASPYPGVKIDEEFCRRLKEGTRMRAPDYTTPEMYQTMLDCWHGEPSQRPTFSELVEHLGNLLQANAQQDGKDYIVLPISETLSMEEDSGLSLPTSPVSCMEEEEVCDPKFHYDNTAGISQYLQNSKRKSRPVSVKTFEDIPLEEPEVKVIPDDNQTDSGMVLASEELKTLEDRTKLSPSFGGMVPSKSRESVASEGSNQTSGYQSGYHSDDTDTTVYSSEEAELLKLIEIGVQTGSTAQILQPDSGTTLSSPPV
Experimental: The inhibitory effect of the compounds is determined in an assay for phosphorylation of substrate by the KDR enzyme in vitro using a scintillation technique (96-well plate, NEN).
The cytoplasmic domain of the human KDR enzyme was cloned in GST fusion form into the baculovirus expression vector pFastBac. The protein was expressed in SF21 cells and purified to approximately 60% homogeneity. The KDR kinase activity is measured in 20 mM MOPS, 10 mM MgCl2, 10 mM MnCl2, 1 mM DTT, 2.5 mM EGTA, 10 mM b-glycerophosphate, pH=7.2, in the presence of 10 mM MgCl2, 100 μM Na3VO4 and 1 mM NaF. 10 μl of the compound are added to 70 μl of kinase buffer containing 100 ng of KDR enzyme at 4° C. The reaction is initiated by adding 20 μl of solution containing 2 μg of substrate (SH2-SH3 fragment of PLCγ expressed in the form of an GST fusion protein), 2 μCi γ ^33P[ATP] and 2 μM cold ATP. After incubation for 1 hour at 37° C., the reaction is stopped by adding 1 volume (100 μl) of 200 mM EDTA. The incubation buffer is removed and the wells are washed three times with 300 μl of PBS. The radioactivity is measured in each well using a Top Count NXT (Packard) radioactivity counter.
The background noise is determined by measuring the radioactivity in four different wells containing the radioactive ATP and the substrate alone.
A total activity control is measured in four different wells containing all the reagents (γ^33P-[ATP], KDR and PLC-γ substrate) but in the absence of compound.
The inhibition of the KDR activity with the compound of the invention is expressed as percentage inhibition of the control activity determined in the absence of compound.
The compound SU5614 (Calbiochem) (1 μM) is included in each plate as inhibition control.

[1] = Assay 1, read-out: Tie2 % Inhib at 10 μM (FRX) Assay 1
[2] = Assay 2, read-out: Tie2 % Inhib at 10 μM (FRX) Assay 2
[3] = Assay 1, read-out: KDR % Inhib at 10 μM Assay 1
[4] = Assay 2, read-out: KDR % Inhib at 10 μM Assay 2

T1 sequence (Q02763 776-1124): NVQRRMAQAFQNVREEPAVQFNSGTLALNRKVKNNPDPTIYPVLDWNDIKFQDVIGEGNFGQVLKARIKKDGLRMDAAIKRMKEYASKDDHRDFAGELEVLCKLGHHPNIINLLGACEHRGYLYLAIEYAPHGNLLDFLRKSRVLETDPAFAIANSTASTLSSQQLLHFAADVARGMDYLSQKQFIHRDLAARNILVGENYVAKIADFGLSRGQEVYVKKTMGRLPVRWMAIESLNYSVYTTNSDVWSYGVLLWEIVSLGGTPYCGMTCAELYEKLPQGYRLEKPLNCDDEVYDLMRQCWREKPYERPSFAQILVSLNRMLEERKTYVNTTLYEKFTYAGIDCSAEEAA

Row | Compound | inhibition at 10 µM (human Tie2; read-out: Tie2 % Inhib. 10 μM) [%] | inhibition at 10 µM (human KDR enzyme; read-out: KDR % Inhib. 10 μM) [%] | other results
1 | Cc1cc2nc(-c3[nH]nc4c3CCN(CCCc3ccccc3)C4)[nH]c2cc1C [Chemistry 19] | 68.1 | 17.9 | –
2 | CCCCNC(=O)N1CCc2c(n[nH]c2-c2nc3cc(C)c(C)cc3[nH]2)C1 [Chemistry 64] | 38.5 | 18 | –
3 | Cc1cc2nc(-c3[nH]nc4c3CCN(C(=O)Nc3ccccc3)C4)[nH]c2cc1C [Chemistry 59] | 33.2 | 17.6 | –
4 | CCN1CCc2c(n[nH]c2-c2nc3cc(C)c(C)cc3[nH]2)C1 [Chemistry 16] | 36.4 | -5.75 | –
5 | Cc1cc2nc(-c3[nH]nc4c3CCN(C(=O)c3ccccc3Cc3ccccc3)C4)[nH]c2cc1C [Example P-31378-112-6] | – | – | inhibition at 10 µM (human Tie2; [1]): 92.7%; inhibition at 10 µM (human Tie2; [2]): 93.8%; inhibition at 10 µM (human KDR enzyme; [3]): 71.4%; inhibition at 10 µM (human KDR enzyme; [4]): 68%
6 | Cc1cc2nc(-c3[nH]nc4c3CCN(C(=O)c3cccs3)C4)[nH]c2cc1C [Chemistry 57] | 94.6 | 75.2 | –
7 | CCCCS(=O)(=O)N1CCc2c(n[nH]c2-c2nc3cc(C)c(C)cc3[nH]2)C1 [Chemistry 30] | 44.2 | 15.3 | –
8 | Cc1cc2nc(-c3[nH]nc4c3CCN(C(=O)Nc3cccs3)C4)[nH]c2cc1C [Chemistry 65] | 85.9 | 63.3 | –
9 | Cc1cc2nc(-c3[nH]nc4c3CCN(CC(C)C)C4)[nH]c2cc1C [Chemistry 6] | 41.2 | 2.1 | –
10 | Cc1cccc(S(=O)(=O)N2CCc3c(n[nH]c3-c3nc4cc(C)c(C)cc4[nH]3)C2)c1 [Chemistry 37] | 88.3 | 41.2 | –
11 | Cc1cc2nc(-c3[nH]nc4c3CCN(C(=O)c3ccccc3NCc3ccco3)C4)[nH]c2cc1C [Example P-31378-112-16] | – | – | inhibition at 10 µM (human Tie2; [1]): 88.7%; inhibition at 10 µM (human Tie2; [2]): 88.3%; inhibition at 10 µM (human KDR enzyme; [3]): 90.2%; inhibition at 10 µM (human KDR enzyme; [4]): 89.1%
12 | Cc1cc2nc(-c3[nH]nc4c3CCN(C(=O)c3ccc(S(C)(=O)=O)cc3)C4)[nH]c2cc1C [Chemistry 58] | 82.3 | 27.9 | –
13 | CC(=O)N1CCc2c(n[nH]c2-c2nc3cc(C)c(C)cc3[nH]2)C1 [Chemistry 44] | 90.8 | 41.1 | –
14 | COc1ccccc1S(=O)(=O)N1CCc2c(-c3nc4cc(C)c(C)cc4[nH]3)n[nH]c2C1 [Chemistry 39] | 97.9 | 30.9 | –
15 | Cc1cc2nc(-c3[nH]nc4c3CCN(C(=O)c3cccc(Cl)c3)C4)[nH]c2cc1C [Chemistry 47] | 87.7 | 78.5 | –
16 | Cc1cc2nc(-c3[nH]nc4c3CCN(C(=O)c3ccco3)C4)[nH]c2cc1C [Chemistry 53] | 92.7 | 74.5 | –
17 | Cc1cc2c(cc1C)NC(c1[nH]nc3c1CCN(C(=O)c1ccc(C)c([N+](=O)[O-])c1)C3)N2 [Example P-31378-112-14] | – | – | inhibition at 10 µM (human Tie2; [1]): 69.7%; inhibition at 10 µM (human Tie2; [2]): 73.8%; inhibition at 10 µM (human KDR enzyme; [3]): 19.5%; inhibition at 10 µM (human KDR enzyme; [4]): 13%
18 | Cc1cc2nc(-c3[nH]nc4c3CCN(C(=O)c3ccccc3Cl)C4)[nH]c2cc1C [Chemistry 46] | 96.7 | 73 | –
19 | Cc1cc2nc(-c3[nH]nc4c3CCN(C(=O)C3CC3)C4)[nH]c2cc1C [Chemistry 45] | 94.1 | 33.4 | –
20 | CCCC(=O)N1CCc2c(n[nH]c2-c2nc3cc(C)c(C)cc3[nH]2)C1 [Chemistry 52] | 89.3 | 29.4 | –
21 | COc1ccccc1NC(=O)N1CCc2c(n[nH]c2-c2nc3cc(C)c(C)cc3[nH]2)C1 [Chemistry 67] | 18.1 | 8.1 | –
22 | Cc1cc2nc(-c3[nH]nc4c3CCN(C(=O)c3ccccc3Nc3cccc(C(F)(F)F)c3)C4)[nH]c2cc1C [Example P-31378-112-3] | – | – | Tie2 % Inhib at 10 μM (FRX) Assay 1 (human Tie2; Assay 1, 10 µM): 78.7%; Tie2 % Inhib at 10 μM (FRX) Assay 2 (human Tie2; Assay 2, 10 µM): 79.1%; KDR % Inhib at 10 μM Assay 1 (human KDR enzyme; Assay 1): 59.0%; KDR % Inhib at 10 μM Assay 2 (human KDR enzyme; Assay 2): 56.5%
